Experiments:
[1] = system: α-isomaltosylglucosaccharide-forming enzyme; assay: Influence of metal ions on α-isomaltosylglucosaccharide-forming enzyme activity (C11 strain); assay type: biochemical, Bacillus globisporus C11 strain; conditions: in the presence of 1 mM metal salt; None = 100
Procedure: (§1) The activities of these enzymes were assayed as follows: The activity of α-isomaltosylglucosaccharide-forming enzyme was assayed by dissolving maltotriose in 100 mM acetate buffer (pH 6.0) to give a concentration of 2% (w/v) for a substrate solution, adding 0.5 ml of an enzyme solution to 0.5 ml of the substrate solution, enzymatically reacting the mixture solution at 35° C. for 60 min, boiling the reaction mixture for 10 min to suspend the enzymatic reaction, and quantifying maltose, among the isomaltosyl maltose and maltose formed in the reaction mixture, on HPLC as described in Experiment 1. One unit activity of the α-isomaltosylglucosaccharide-forming enzyme was defined as the enzyme amount that forms one micromole of maltose per minute under the above enzymatic reaction conditions.
(§2) The influence of metal ions on the activity of α-isomaltosylglucosaccharide-forming enzyme was examined in the presence of 1 mM of any of metal salts according to the assay for the enzyme activity.

[2] = system: α-isomaltosylglucosaccharide-forming enzyme; assay: Specificity of transfer acceptor (C9 enzyme); assay type: biochemical, Bacillus globisporus C9 strain; conditions: acceptor 1.6%, PINE-DEX #100 donor 4%, one unit/g donor, 30° C., pH 6.0, 24 hours
Procedure: (§3) A variety of saccharides were tested whether they could be used as transferring-acceptors for the α-isomaltosylglucosaccharide-forming enzyme. A solution of D-glucose, D-xylose, L-xylose, D-galactose, D-fructose, D-mannose, D-arabinose, D-fucose, L-sorbose, L-rhamnose, methyl-α-glucopyranoside, methyl-β-glucopyranoside, N-acetyl-glucosamine, sorbitol, α,α-trehalose, isomaltose, isomaltotriose, cellobiose, gentibiose, maltitol, lactose, sucrose, α-cyclodextrin, β-cyclodextrin, or γ-cyclodextrin was prepared. […] The reaction mixtures after the enzymatic reactions were analyzed on gas chromatography (abbreviated as “GLC” hereinafter) for monosaccharides and disaccharides as acceptors, and on HPLC for trisaccharides and higher saccharides as acceptors to confirm whether these saccharides could be used as their transfer acceptors. In the case of performing GLC, the following apparatuses and conditions were used: […] In the case of HPLC analysis, the apparatuses and conditions used were: HPLC apparatus, “CCPD” commercialized by Tosoh Corporation, Tokyo, Japan; column, “ODS-AQ-303” commercialized by YMC Co., Ltd., Tokyo, Japan; eluent, water at a flow rate of 0.5 ml/min; and detection, a differential refractometer.

[3] = system: α-isomaltosylglucosaccharide-forming enzyme; assay: Specificity of transfer acceptor (C11 enzyme); assay type: biochemical, Bacillus globisporus C11 strain; conditions: acceptor 1.6%, PINE-DEX #100 donor 4%, one unit/g donor, 30° C., pH 6.0, 24 hours
Procedure: as §3

[4] = system: Bacteroides vulgatus JCM 5826; assay: Assimilation test; assay type: cell-based; conditions: 0.5% saccharide in PYF medium, 37° C., four days, anaerobic
[5] = system: Bifidobacterium adolescentis JCM 1275; assay: Assimilation test; assay type: cell-based; conditions: 0.5% saccharide in PYF medium, 37° C., four days, anaerobic
[6] = system: Clostridium perfringens JCM 3816; assay type: cell-based; conditions: 0.5% saccharide in PYF medium, 37° C., four days, anaerobic
[7] = system: Escherichia coli IFO 3301; assay: Assimilation test; assay type: cell-based; conditions: 0.5% saccharide in PYF medium, 37° C., four days, anaerobic
[8] = system: Eubacterium aerofaciens ATCC 25986; assay: Assimilation test; assay type: cell-based; conditions: 0.5% saccharide in PYF medium, 37° C., four days, anaerobic
[9] = system: Lactobacillus acidophilus JCM 1132; assay: Assimilation test; assay type: cell-based; conditions: 0.5% saccharide in PYF medium, 37° C., four days, anaerobic
[10] = target: T1, amylopsin (Homo sapiens, UniProt P04746); assay: Digestion test in vitro, amylopsin
T1 sequence (P04746 16-511): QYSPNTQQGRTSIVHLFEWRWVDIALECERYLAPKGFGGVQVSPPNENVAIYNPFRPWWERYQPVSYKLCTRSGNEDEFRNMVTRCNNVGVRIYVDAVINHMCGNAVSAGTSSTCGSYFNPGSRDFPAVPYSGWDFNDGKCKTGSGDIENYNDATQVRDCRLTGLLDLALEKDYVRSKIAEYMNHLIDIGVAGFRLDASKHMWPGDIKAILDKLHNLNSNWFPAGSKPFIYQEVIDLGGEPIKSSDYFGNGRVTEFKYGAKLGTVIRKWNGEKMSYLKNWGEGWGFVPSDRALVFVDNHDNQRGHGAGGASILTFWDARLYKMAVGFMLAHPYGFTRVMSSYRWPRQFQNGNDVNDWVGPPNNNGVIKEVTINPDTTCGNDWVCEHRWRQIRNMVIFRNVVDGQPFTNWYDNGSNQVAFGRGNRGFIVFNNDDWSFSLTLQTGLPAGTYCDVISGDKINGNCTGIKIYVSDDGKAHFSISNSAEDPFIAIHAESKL

[11] = target: T2, salivary amylase (Homo sapiens, UniProt P0DUB6); assay: Digestion test in vitro, salivary amylase
T2 sequence (P0DUB6 16-511): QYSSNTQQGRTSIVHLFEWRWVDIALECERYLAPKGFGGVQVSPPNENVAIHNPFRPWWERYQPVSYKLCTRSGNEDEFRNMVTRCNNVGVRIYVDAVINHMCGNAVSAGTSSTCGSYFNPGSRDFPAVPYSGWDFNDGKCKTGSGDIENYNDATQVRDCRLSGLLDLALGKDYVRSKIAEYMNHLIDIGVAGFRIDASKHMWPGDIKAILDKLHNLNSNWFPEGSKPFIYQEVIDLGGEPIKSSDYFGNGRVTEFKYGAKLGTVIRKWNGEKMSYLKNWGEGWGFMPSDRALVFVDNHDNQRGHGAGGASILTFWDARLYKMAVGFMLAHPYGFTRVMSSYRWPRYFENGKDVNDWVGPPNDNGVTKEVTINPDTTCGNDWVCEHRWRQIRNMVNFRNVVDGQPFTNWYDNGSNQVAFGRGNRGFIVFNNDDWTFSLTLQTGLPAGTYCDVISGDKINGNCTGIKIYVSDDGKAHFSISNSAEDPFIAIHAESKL

[12] = Digestion test in vitro, synthetic gastric juice
[13] = system: Small intestinal mucosal enzyme; assay: Digestion test in vitro, small intestinal mucosal enzyme
[14] = system: α-isomaltosylglucosaccharide-forming enzyme; assay: Influence of metal ions on α-isomaltosylglucosaccharide-forming enzyme activity (C9 strain); assay type: biochemical, Bacillus globisporus C9 strain; conditions: in the presence of 1 mM metal salt; None = 100
Procedure: as §1, §2

[15] = Dehydration and pulverization of plain yogurt by non-reducing saccharide; parameters: unit not given here; conditions: listed as A
Procedure: The anhydrous crystalline cyclotetrasaccharide; crystalline cyclotetrasaccharide, monohydrate; and anhydrous amorphous cyclotetrasaccharide were respectively prepared by the methods in Examples A-1, A-2, and A-3. As the crystalline α,α-trehalose, dihydrate, a commercially available “TREHA®” commercialized by Hayashibara Shoji Inc., Okayama, Japan, was used. The anhydrous crystalline α,α-trehalose and the anhydrous amorphous α,α-trehalose used in this experiment were prepared from a commercialized crystalline α,α-trehalose, dihydrate, using the methods disclosed in Examples for Reference 1 and 3 in Japanese Patent Kokai No. 170,221/94. To four parts by weight of a plain yogurt with a moisture content of about 77% was added either of the above saccharides in an amount of 11 to 16 parts by weight. The resultant mixtures were respectively placed in vats, allowed to stand at 25° C. for 24 hours, and macroscopically observed their change on standing. The judgement was conducted in such a manner of sufficiently dehydrating the resulting mixtures to be solidified, subjected to a pulverizer for pulverization, and evaluated as “◯”, when the solids were easily pulverized; “Δ”, when the dehydration of the resulting mixtures was rather insufficient and the pulverization of solids was substantially difficult, though the resulting mixtures were solidified; and “x”, when the dehydration of the resulting mixtures was insufficient and could not be pulverized by a pulverizer.

[16] = Dehydrating action: moisture absorption on standing at controlled relative humidity; assay type: physicochemical; conditions: for moisture content (%) by the Karl Fisher method: 25° C., listed as A
From the text: Anhydrous crystalline cyclotetrasaccharide; crystalline cyclotetrasaccharide, monohydrate; anhydrous amorphous cyclotetrasaccharide; and crystalline cyclotetrasaccharide, penta- or hexa-hydrate were experimented in detail on their dehydrating actions, particularly, moisture absorption abilities against saccharides and changes on standing. As a control, anhydrous crystalline α,α-trehalose, anhydrous amorphous α,α-trehalose, and crystalline α,α-trehalose, dihydrate, were used as saccharides. The experiments were as follows: […]

[17] = system: Aspergillus niger; assay: Bacterial contamination of gelatinized starch (gyuhi); conditions: at 30 days on standing, 25° C., open conditions
Procedure: The mixture was mixed with a mixer and further mixed to homogeneity with two parts by weight of a starch hydrolyzate, shaped, and roughly dried for two hours, while blowing 40° C. hot air to the contents, to obtain “gyuhi” (a rice paste with sugar).

Which “Relative activity (%)” value [1] does the source give for `[Al+3]` [Al^3+] here?
Its value is 100%.

With `O=C[C@H](O)[C@@H](O)[C@H](O)[C@H](O)CO` [D-Glucose, D-glucose, reference compound] as the compound, how does the “Product of saccharide transferring reaction, Enzyme of C9 strain” value [2] read?
Its value is “+ (a saccharide-transferred product was detected in an amount of at least one percent but less than ten percent through transferring reaction to acceptor)”.

What about the “Product of saccharide transferring reaction, Enzyme of C11 strain” value [3] of the same compound?
The value was “+ (a saccharide-transferred product was detected in an amount of at least one percent but less than ten percent through transferring reaction to acceptor)”.

What about the Assimilability [4] of the same compound?
Its Assimilability is “+ (judged as positive (+) when the post culture had a pH of below 6.0)”.

What about the Assimilability [5] of the same compound?
The Assimilability was “+ (judged as positive (+) when the post culture had a pH of below 6.0)”.

What about the Assimilability [6] of the same compound?
Its Assimilability is “+ (judged as positive (+) when the post culture had a pH of below 6.0)”.

What about the Assimilability [7] of the same compound?
The Assimilability was “+ (judged as positive (+) when the post culture had a pH of below 6.0)”.

And the Assimilability [8]?
Its Assimilability is “+ (judged as positive (+) when the post culture had a pH of below 6.0)”.

What about the Assimilability [9] of the same compound?
Its Assimilability is “+ (judged as positive (+) when the post culture had a pH of below 6.0)”.

With `[Fe+2]` [Fe^2+] as the compound, how does the “Relative activity (%)” value [1] read?
Its value is 100%.

Which “Product of saccharide transferring reaction, Enzyme of C9 strain” value [2] does the source give for `OC[C@@H](O)[C@@H](O[C@H]1O[C@H](CO)[C@@H](O)[C@H](O)[C@H]1O)[C@H](O)[C@@H](O)CO` [Maltitol, maltitol] here?
The value was “++ (a saccharide-transferred product was detected in an amount of at least ten percent through transferring reaction to acceptor)”.

And the “Product of saccharide transferring reaction, Enzyme of C11 strain” value [3]?
The value was “++ (a saccharide-transferred product was detected in an amount of at least ten percent through transferring reaction to acceptor)”.

And the “Decomposition percentage (%) by digestive enzyme” value (“Decomposition percentage (%)” below) [10]?
Its value is 0.0%.

What about the “Decomposition percentage (%)” value [11] of the same compound?
Its value is 0.0%.

And the “Decomposition percentage (%)” value [12]?
The value was 0.0%.

And the “Decomposition percentage (%)” value [13]?
The value was 4.0%.

With `[Mg+2]` [Mg^2+] as the compound, how does the “Relative activity (%)” value [14] read?
The value was 100%.

With `OC[C@H]1O[C@@H]2OC[C@H]3O[C@H](O[C@@H]4[C@@H](O)[C@@H](OC[C@H]5O[C@H](O[C@H]([C@H]2O)[C@@H]1O)[C@H](O)[C@@H](O)[C@@H]5O)O[C@H](CO)[C@H]4O)[C@H](O)[C@@H](O)[C@@H]3O` [Saccharide A, anhydrous crystalline cyclotetrasaccharide] as the compound, how does the “Water content (before use)” value [15] read?
Its value is 0.2.

And the “moisture content (%) by the Karl Fisher method” value (shortened to “moisture content (%)”) ([16]; relative humidity 60%, 0 days after treatment)?
The value was 0.2%.

And the “moisture content (%)” value ([16]; relative humidity 60%, 1 day after treatment)?
Its value is 10.2%.

And the “moisture content (%)” value ([16]; relative humidity 60%, 2 days after treatment)?
The value was 10.3%.

What about the “moisture content (%)” value ([16]; relative humidity 60%, 3 days after treatment) of the same compound?
The value was 10.3%.

And the “moisture content (%)” value ([16]; relative humidity 60%, 7 days after treatment)?
The value was 10.4%.

And the “moisture content (%)” value ([16]; relative humidity 75%, 0 days after treatment)?
Its value is 0.2%.

And the “moisture content (%)” value ([16]; relative humidity 75%, 1 day after treatment)?
The value was 13.9%.

What about the “moisture content (%)” value ([16]; relative humidity 75%, 2 days after treatment) of the same compound?
The value was 14.4%.

And the “moisture content (%)” value ([16]; relative humidity 75%, 3 days after treatment)?
Its value is 14.4%.

And the “moisture content (%)” value ([16]; relative humidity 75%, 7 days after treatment)?
Its value is 14.3%.

What about the “moisture absorption level, % of its weight” value ([16]; relative humidity of 60%, listed as anhydrous crystalline cyclotetrasaccharide) of the same compound?
The value was “about 10%”.

What about the “moisture absorption level, % of its weight” value ([16]; relative humidity of 75%) of the same compound?
Its value is “about 14%”.

And the “bacterial contamination in gyuhi” value [17]?
The value was “found no bacterial contamination”.

— patent US7186701B2, “Dehydrating agent and method for dehydrating moist article using the agent and dehydrated article obtained by the method” (Kabushiki Kaisha Hayashibara Seibutsu Kagaku Kenkyujo, priority 2001, dated 2007)
